# Like-named read-outs stand apart in the source and are kept apart here.
# Experiments:
# [1] = phase 1 first-in-human trial, food effect study (FES) PK; format: in vivo; settings: for AUC(0-t) / Cmax / half-life / Tmax: 150 mg; for half-life: read-out: T1/2 (geometric mean) (converted)
# Method: Anle138b was studied in a single-centre, double-blind, randomised, placebo-controlled single ascending dose (SAD) and multiple ascending dose (MAD) study in healthy subjects. Eligible participants were randomly assigned (1:1 for sentinel subjects and 1:5 for main group) to placebo or anle138b (dose ranging from 50 mg to 300 mg per day), respectively. In addition, the effect of food on the pharmacokinetics (PK) of anle138b in healthy subjects was examined at doses of 150 mg per day (FES, food effect study). Participants were randomized to treatment sequence (fed→fasted) or (fasted→fed). Treatment for the SAD, MAD and FES arms of the study was administered orally in hard gelatin capsules containing either 10 mg or 30 mg of anle138b with excipient (i.e., lauroyl polyoxyl-32 glycerides) or excipient only. The primary endpoints were safety and tolerability, the secondary endpoint was pharmacokinetics. Data from all randomized individuals were evaluated. [Clinicaltrials.gov-identifier: NCT04208152. EudraCT-number: 2019-004218-33]
# This dose was administered either i) after a standard FDA-approved high-fat breakfast or ii) in the fasted state, i.e., fasted from all food and drink (except water) for a minimum of 8 h prior to dosing. In total, one cohort of 12 subjects was randomised in a 1:1 ratio to 2 treatment sequences (fed→fasted) or (fasted→fed). A minimum washout of at least 5 half-lives of anle138b between each dose was assured.
# Secondary outcome measures were the oral PK of single (SAD) and multiple (MAD) ascending doses of anle138b in the fasted state as well as the effect of co-administration with food on the PK of anle138b. To this end PK blood samples were taken at day 1 (and for MAD day 7) pre-dose and at 0.5, 1, 1.5, 2, 3, 4, 6, 8, 10, 12, 16 and 20 h post-administration, at days 2 to 6 pre-dose only (MAD) and 24, 30, 36 and 48 h post final dose. Analysis of anle138b in plasma was done at Aptuit. Time point of last quantifiable data was seen to increase with an increase in dose as follows: SAD: from the 50 mg dose (subjects ranged between 8-24 h) to the 300 mg dose (subjects ranged between 36-48 h). MAD: from the 100 mg dose (subjects ranged between 8-36 h) to the 300 mg dose (subjects ranged between 20-48 h). In FES, subjects ranged between 24-48 h.
# where μ=[…] is the intercept and β is the slope from the linear model. Using this model it is possible to estimate β (measure of dose proportionality) and obtain 90% confidence interval (CI) for β (Gough, 1995; Smith, 2000). The estimate of β together with its 90% CI (βI, βu) was used to quantify the degree of non-proportionality. In MAD, formal statistical analysis was performed on the PK parameters AUC0-tau and Cmax to assess dose accumulation. Log-transformed AUC0-tau and Cmax was subjected to a mixed-effects model with treatment (dose level), day (day 1 or 7) and treatment-by-day interaction as fixed effects and subject as a random effect. The adjusted means obtained from the model, including differences for each comparison of interest and the associated 90% CIs, was back-transformed on the log scale to obtain adjusted geometric means, adjusted geometric mean ratios (GMRs) and 90% CIs of the ratio. The GMRs and 90% CIs were provided for each treatment and overall, i.e., day 7/day 1. In the FES, formal statistical analysis was performed on the PK parameters Cmax, AUC0-last and AUC0-24 to assess the effects of food on anle138b. The PK parameters underwent a natural logarithmic transformation and were analysed using a mixed-effect model with terms for treatment (i.e., prandial state), period and sequence as fixed effects and subject nested within sequence as a random effect. Adjusted GMRs and 90% CIs for the adjusted GMRs for the comparison between fed and fasted states were provided where the ratios are defined as fed/fasted.
# [2] = rat formulation study, PK after single oral administration; format: in vivo; settings: Sprague-Dawley, plasma, male rats, 10 mg/kg single oral, read-out: Tmax, all four formulations
# Method: A rat study was undertaken to assess the pharmacokinetics of anle138b in male Sprague Dawley rats (n=3/arm) following single oral administration of different formulations of anle138b, as follows, in Table 5.
# Male Sprague Dawley (SD) rats (n=3/formulation) sourced from Charles River Italia were kept for 5 days acclimatization. Feeding regimen was ad libitum except on the day of dosing when the food was supplied 4 hours post dosing, having been removed the evening beforehand. Animals were orally dosed with anle138b (10 mg/kg) formulated as above. An individual serial plasma profile was drawn from each animal over a period of 24 hours after dosing.
# The dose formulations were administered orally via gastric gavage (2 ml/kg); any remaining formulation after dosing was discarded.
# After oral administration, blood samples were collected from the tail vein of each rat at the time-points detailed: Pre dose, 0.5, 1, 2, 4, 6, 8 and 24 hours after dosing […]
# PK profiling was performed by non-compartmental analysis using Phoenix™ WinNonlin. […] The maximum observed peak plasma concentration (Cmax) and the time at which it was observed (Tmax) were determined by inspection of the observed data.
# The relative bioavailability ([…]) of anle138b between dose formulations was calculated by comparing systemic exposure (AUC0-t), and are reported rounded to at least 2 significant figures. […]
compound,measurement,setting,value
"Brc1cccc(-c2cc(-c3ccc4c(c3)OCO4)n[nH]2)c1 [anle138b, 3-(1,3-benzodioxol-5-yl)-5-(3-bromophenyl)-1H-pyrazole]",effect of food on Cmax (in words),"[1]; 150 mg single dose, fed vs fasted",decreased by about half
same,AUC(0-t),"[1]; human, plasma, oral, 150 mg single dose, fasted, read-out: AUC0-24 range",433 to 2720 ng·h/mL
same,Cmax,"[1]; human, plasma, oral, 150 mg single dose, fasted, read-out: Cmax range",225 to 1420 ng/mL
same,AUC(0-t),"[1]; human, plasma, oral, 150 mg single dose, fed, read-out: AUC0-24 range",378 to 1920 ng·h/mL
same,Cmax,"[1]; human, plasma, oral, 150 mg single dose, fed, read-out: Cmax range",110 to 479 ng/mL
same,bioavailability,"[1]; human, plasma, oral, 150 mg single dose, 90% CI: 61%, 84%, read-out: dose bioavailable in the fed state compared to the fasted state",~74%
same,AUC(0-t),"[1]; human, plasma, po, healthy volunteers, single oral 150 mg, fasted, read-out: AUC(0-24) (geometric mean)",~896 ng·h/mL
same,AUC(0-t),"[1]; human, plasma, po, healthy volunteers, single oral 150 mg, fasted, read-out: AUC(0-last) (geometric mean)",888 ng·h/mL
same,Cmax,"[1]; human, plasma, po, healthy volunteers, single oral 150 mg, fasted, read-out: Cmax (geometric mean)",~442 ng/mL
same,half-life,"[1]; human, plasma, po, healthy volunteers, single oral 150 mg, fasted",11.3 h
same,Tmax,"[1]; human, plasma, po, healthy volunteers, single oral 150 mg, fasted, read-out: Tmax (median)",1.25 h
same,Tmax,"[1]; human, plasma, po, healthy volunteers, single oral 150 mg, fasted, read-out: Tmax (range)",1 to 2 h
same,Tmax,"[1]; human, plasma, po, healthy volunteers, single oral 150 mg, fed (high-fat breakfast), read-out: Tmax (median)",3 h
same,Tmax,"[1]; human, plasma, po, healthy volunteers, single oral 150 mg, fed (high-fat breakfast), read-out: Tmax (range)",1.5 to 3 h
same,AUC(0-t),"[1]; human, plasma, po, healthy volunteers, single oral 150 mg, fed, read-out: AUC(0-24) (geometric mean)",~641 ng·h/mL
same,AUC(0-t),"[1]; human, plasma, po, healthy volunteers, single oral 150 mg, fed, read-out: AUC(0-last) (geometric mean)",668 ng·h/mL
same,Cmax,"[1]; human, plasma, po, healthy volunteers, single oral 150 mg, fed, read-out: Cmax (geometric mean)",~196 ng/mL
same,half-life,"[1]; human, plasma, po, healthy volunteers, single oral 150 mg, fed",15.2 h
same,ratio of fasted AUC(0-24) to fed AUC(0-24),"[1]; single dose, healthy subject",less than 1.5
same,Tmax,[2],2 to 8 h

# — patent US20250161273A1, “PHARMACEUTICAL COMPOSITION COMPRISING DIPHENYLDIAZOLE DERIVATIVES AND METHODS OF USE” (MODAG GMBH, priority 2022, published 2025)
